In patent US20120190752A1, “EXO-S-MECAMYLAMINE METHOD, USE, AND COMPOUND FOR TREATMENT” (Targacept Inc., priority 2009, published 2012):

System: subjects with major depressive disorder (MDD) who were inadequate responders to citalopram
Test: HAMD Anxiety/Somatization Factor, Phase 2b add-on trial
Assay type: in vivo, human
Description: In more detail, a multi-center double-blind, randomized, placebo-controlled, parallel group, flexible dose titration study of TC-5214 as adjunctive therapy in subjects with major depressive disorder (MDD) who were inadequate responders to citalopram was conducted in centers in the US and India. The study consisted of a screening period, baseline/washout period, open-label phase, double-blind phase, and a follow-up visit. Subject participation in the study could continue for up to 16 weeks of treatment. Following a washout period of up to 28 days for other antidepressants, subjects with MDD and a MADRS total score >/=28 and a Clinical Global Impression-Severity (CGI-S) score >/=4 were enrolled on Day 1 into an open-label citalopram-only phase of the study. This phase lasted 8 weeks, with citalopram (CIT) dose increased from a once-daily dose of 20 mg (Day 1 through Week 4) to 40 mg (Week 4 through Week 8). A total of 579 subjects entered the open-label citalopram phase. At Week 8, subjects who tolerated 40 mg CIT, but whose MADRS score was reduced <50% from baseline and no lower than 17, and CGI-S≧4, were considered inadequate responders. These subjects (n=270) were randomized in a double-blind fashion to receive either placebo or TC-5214-23 as add-on therapy to continued CIT. The double-blind phase of the study also lasted 8 weeks (Week 8 to Week 16). Study drug, TC-5214-23 or placebo, was started at 2 mg daily (1 mg twice per day [BID] dosing), added on to continuing CIT (40 mg PO qd). After 2 weeks of treatment, the dose of TC-5214 could be increased to 4 mg (2 mg BID) or continued unchanged, with up-titration based upon good tolerability and inadequate therapeutic response. After a further 2 weeks, the dose of TC-5214 could be increased again to 8 mg (4 mg BID) if judged appropriate by the investigator, based upon good tolerability and inadequate therapeutic response. At any time during the double-blind phase of the study, placebo or TC-5214-23 could be reduced to the previous dose level following the emergence of unacceptable adverse events (AEs). […] At this follow-up, any signs or symptoms of relapse were evaluated. If a subject was prematurely discontinued from the study between Week 8 and Week 16 for any reason, the investigator was to make every effort to perform all evaluations as per protocol, assuming the subject had reached the end of the double-blind add-on treatment phase. These evaluations were to be made as soon as possible and within 2 weeks of discontinuation. […] There was no meaningful difference in results as a function of age, gender, site, or smoking status. With regard to efficacy endpoints, the following tables present efficacy used in the ITT (Intent-to-Treat) and PP (Per Protocol) populations unless otherwise specific. The primary inference was based upon Week 16 visit using the ITT population. Change from baseline was obtained by subtracting the baseline values from the individual on-treatment values. Change from Week 16 was obtained by subtracting the Week 16 values from the individual follow-up visit (Week 18/19) values. If either the baseline or Week 16 or on-treatment or follow-up value was missing, the change from baseline or Week 16 value was also set to missing. To account for missing data, the last observation carry forward (LOCF) method was used for the ITT and PP populations. Thus, the last available on-therapy observation for a subject, including the observation at premature discontinuation, was used to estimate subsequent missing data points. For efficacy, baseline data were collected at Week 8 in the double-blind augmentation phase electronic case report form pages. Analysis for the secondary endpoints were performed on both the ITT and PP populations. The secondary endpoints were as follows in Table 5. [table]

[1] = ITT, Double Blind Week 16 LOCF (change from Week 8)
[2] = ITT, Double Blind Week 18 LOCF (Follow-up), change from Week 16
[3] = PP, Double Blind Week 16 LOCF (change from Week 8)
[4] = PP, Double Blind Week 18 LOCF (Follow-up), change from Week 16

Compound: CNC1(C)C2CCC(C2)C1(C)C (stereo in doubt) [TC-5214, (S)—N,2,3,3-tetramethylnorbornan-2-amine]
- HAMD anxiety/somatization subscale score change from baseline compared with placebo (ITT and PP populations, result in words): statistically significant decreases (improvements)
- HAMD anxiety/somatization Mean Difference between TC-5214 and Placebo [1]: 1.93
- HAMD anxiety/somatization subscale Adjusted Mean change [1]: −4.58
- HAMD anxiety/somatization Mean Difference between TC-5214 and Placebo [2]: −0.00
- HAMD anxiety/somatization subscale Adjusted Mean change [2]: −0.14
- HAMD anxiety/somatization Mean Difference between TC-5214 and Placebo [3]: 1.92
- HAMD anxiety/somatization subscale Adjusted Mean change [3]: −4.93
- HAMD anxiety/somatization Mean Difference between TC-5214 and Placebo [4]: 0.01
- HAMD anxiety/somatization subscale Adjusted Mean change [4]: −0.16
